Source: US20210128736A1, “STEREOCOMPLEX OF OLIGOLACTIC ACID CONJUGATES IN MICELLES FOR IMPROVED PHYSICAL STABILITY AND ENHANCED ANTITUMOR EFFICACY” (Wisconsin Alumni Research Foundation, priority 2018, published 2021)

How the values were obtained:
[1] = test system: human A549 non-small lung cancer cells; experiment: In vitro cytotoxicity, CellTiter-Blue Cell Viability Assay, A549; format: cell-based; conditions: 72 hours incubation, micelles at 15% loading
Experimental: (§1) In vitro cytotoxicity studies. […] A549 cells were seeded into a 96-well plate at a seeding density of 1,500 cells/100 μL/well and cultured in RPMI 1640 medium, or PANC-1 cells were seeded into a 96-well plate at a seeding density of 5,000 cells/100 μL/well and cultured in Dulbecco Modified Eagle Medium (DMEM), at 37° C. in 5% CO2 incubator for 24 h. […] Cells cultured with diluted PBS in medium was used as controls. Drug treated cells were placed in an incubator at 5% CO2 at 37° C. for 72 h. The medium in each well was aspirated, and 100 μL of 20% (v/v) CellTiter-Blue reagent in serum free RPMI 1640 or DMEM was added, followed by incubation at 37° C. in 5% CO2 atmosphere for 1.5 h. Fluorescence intensity was measured by a SpectraMax M2 plate reader (Molecular Devices, San Jose, Calif.) with excitation and emission at 560 and 590 nm, respectively. The half maximal inhibitory drug concentration (IC50) was determined by using GraphPad Prism version 5.00 for Windows (GraphPad Software, La Jolla, Calif.).

[2] = test system: PANC-1 pancreatic cancer cells; experiment: In vitro cytotoxicity, CellTiter-Blue Cell Viability Assay, PANC-1; format: cell-based; conditions: Homo sapiens; PANC-1 cells, 72 hours incubation; micelles at 15% loading
Experimental: as §1

[3] = test system: A549 non-small cell lung cancer xenograft; experiment: In vivo antitumor efficacy in A549 xenograft model; design: species or system female athymic nude mice; conditions: 3-weekly I.V. injections at 10 mg/kg equivalent of GEM; micelles 5% loading; vs saline control
Experimental: In vivo antitumor efficacy studies. […] 6-8 week-old female athymic nude mice (20-25 g each) were acquired from laboratory animal resources at School of Medicine and Public Health, University of Wisconsin-Madison. Mice were housed in ventilated cages with free access to water and food and acclimated for 1 week prior tumor cell injection. A549 cells (2×10^6 cells in 100 μL of serum-free RPMI 1640 medium) were harvested from sub-confluent cultures after trypsinization and were injected subcutaneously into the right flank of each mouse. […] Drugs were administered via tail vein for 3 weekly injections. Body weight and tumor volume were monitored over the course of study. Tumor volume was calculated using the formula: V=(a×b^2)/2, where V is tumor volume, a is tumor length, b is tumor width.

[4] = mice, reported; cited from earlier work
subcutaneous tumors = conditions: cited from earlier work
[5] = Stability in rat plasma at 37° C. (RP-HPLC); conditions: 24 hours

Compound: Nc1ccn([C@@H]2O[C@H](CO)[C@@H](O)C2(F)F)c(=O)n1 [GEM, Gemcitabine]
- IC50 [1]: ~1.1 µM
- IC50 [2]: ~9.2 µM
- antitumor efficacy (tumor growth, relative tumor volume) [3]: not effective
- maximum tolerated doses (MTD) [4]: 100 mg/kg
- dose required to inhibit tumor growth (subcutaneous tumors; mice bearing subcutaneous tumors): 100 mg/kg
- efficacy against subcutaneous tumors (subcutaneous tumors; mice, GEM at 10 mg/kg): generally ineffective
- intact GEM detected after incubation in plasma [5]: less than 50%
